Experiments:
[1] = Protein binding in vitro; assay type: in vitro ADME; conditions: human
[2] = Toxicological studies in the rat; assay type: in vivo
Description: The toxicological evaluations of Compound A included studies in the rat and cynomolgus monkey (non-human primate [NHP]) and should be relevant to assessing potential human risk, as the STING pathway, the target of Compound A, is conserved across species.
The non-good laboratory practice (GLP) studies in the rat and NHP covered a broad range of doses and regimens. The objective of these studies was to evaluate the effects of Compound A following multiple ascending doses, single doses, and multiple doses.

[3] = system: 4T1 (breast cancer); assay: 4T1 PD-L1 antibody-resistant tumor model; assay type: in vivo, BALB/c mice
Method: (§1) Compound A was evaluated alone and in combination with 200 µg of the PD-L1 antibody used in Example 6 in immune checkpoint blockade-resistant tumors. In these studies, mice were implanted with LL2 (lung cancer), 4T1 (breast cancer), AG104Ld (fibrosarcoma), and AG104A (fibrosarcoma) tumors. Following implantation, the animals were dosed intratumorally or subcutaneously with 0.5 mg/kg of Compound A alone or in combination with the PD-L1 antibody, as shown in the table below: […]

[4] = system: LL2 (lung cancer); assay: LL2 PD-L1 antibody-resistant tumor model; assay type: in vivo, C57BL/6 mice
Method: as §1

[5] = system: AG104Ld (fibrosarcoma); assay: AG104LD PD-L1 antibody-resistant tumor model; assay type: in vivo, B6C3F1 mice; conditions: Compound A 0.5 mg/kg SC, days 4, 7, 11, 14, 18, 21; PD-L1 antibody 200 µg
Method: as §1

[6] = Cynomolgus monkey toxicity and toxicokinetics, subcutaneous (Phases I-III, priming dose); assay type: in vivo, cynomolgus monkeys
Method: Male and female cynomolgus monkeys were assigned to groups and doses of Compound A were administered. Animals were dosed via subcutaneous injection at a volume of 2 mL/kg. The vehicle control article/diluent was phosphate-buffered saline (PBS).

[7] = system: syngeneic tumors; assay: Combination with PD-L1 antibody in multiple syngeneic tumor models; assay type: in vivo, mouse; conditions: tumors otherwise refractory to immune checkpoint inhibitors
Description: Several of these studies are described in the examples below.

[8] = system: IFNα, IL-6, TNFα and other cytokines; assay: Plasma cytokine levels in cynomolgus monkeys; assay type: in vivo; conditions: for plasma IFNα levels: male and female
[9] = 1 mg/kg/day, 1.5, 3 and 6 hours postdose

## Nc1nc2c(ncn2[C@@H]2O[C@@H]3COP(=O)(O)OC4C(O)[C@H](n5cnc6c(N)ncnc65)O[C@@H]4COP(=O)(O)OC2C3OCC(F)(F)F)c(=O)[nH]1 (stereo partly drawn) [Compound A]
[1]
  fraction unbound: 0.511
[2]; 3.0 mg/kg dose level
  mortality: Mortality was also seen
[2]; GLP rat study, high doses group 10 and 30 mg/kg
  mortality: Mortality was seen
[2]; mid and high dose levels, rat study
  moribundity and death: Moribundity and death was seen
[2]; rat and NHP toxicology studies, multiple dose
  toxicokinetic findings: no sex related differences, dose proportionality, and no accumulation
[2]; rat, highest dose levels
  cause of deaths: pulmonary edema
[3]; Compound A 0.5 mg/kg IT, days 5, 8, 11, 15, PD-L1 antibody 200 µg
  efficacy (tumor growth and survival): suppressed tumor growth and prolonged mouth survival
[3]; intratumoral
  tumor growth inhibition: highly effective in inhibiting tumor growth
[4]; Compound A 0.5 mg/kg IT, days 5, 10, 14, 17, PD-L1 antibody 200 µg
  efficacy (tumor growth and survival): suppressed tumor growth and prolonged mouth survival
[4]; intratumoral
  tumor growth inhibition: highly effective in inhibiting tumor growth
[5]
  efficacy (tumor growth and survival): suppressed tumor growth and prolonged mouth survival
[6]; 10 mg/kg/dose, Phase I
  morbidity: Morbidity was observed within 1 day
[6]; 0.3 to 3 mg/kg/day, Day 1 of Phase II
  exposure (mean Cmax, AUC0-2, AUC0-8, AUC0-24) vs dose: generally dose-proportional
[6]; 0.6 or 1.0 mg/kg/day
  compound-related findings: limited to a transient body temperature increase and mild to moderate clinical and anatomic pathology findings
[6]; 3 weekly doses of 0.6 mg/kg without a priming dose
  tolerability: tolerated
[6]; 3 weekly doses of 1.0 mg/kg/day preceded by a priming dose of 0.1 mg/kg
  tolerability: tolerated
[6]; Phase I, subcutaneous dose escalation
  tolerated dose on escalation: up to 3.0 mg/kg/dose
[6]; Phase II, 3 mg/kg in naïve animals
  tolerability: not tolerated and led to clinical observations of morbidity or death within 1 day of dosing
[6]; Phase II, 3 weekly administrations of 0.3 mg/kg
  tolerability: tolerated
[6]; Phase III, three weekly doses of 0.6 or 1.0 mg/kg/day
  survival of animals: survived until scheduled sacrifice
[6]; monkeys
  sex differences in mean Cmax, AUC0-2, AUC0-8, AUC0-24: less than 2 fold
[6]; multiple doses of 0.3 mg/kg/day
  accumulation: No accumulation
[6]; naïve animals
  dose not tolerated (acute morbidity and/or death): ≥ 3.0 mg/kg
[6]; ≥ 3.0 mg/kg, naïve animals
  cause of acute morbidity and/or death: pulmonary edema
[7]
  responsiveness to PD-L1 antibody: restored responsiveness to PD-L1 antibody
[8]; 0.1 mg/kg/day, 3 and 6 hours postdose
  plasma IL-6 levels: Increased plasma levels of IL-6
[8]; 0.1 mg/kg/day, 3 hours post dosing
  IP-10: Slight elevation of IP-10
[8]; 0.1 mg/kg/day, 6 hours postdose in male, 3 and 6 hours in female
  TNFα levels: Elevated levels of TNFα
[8]; 0.1 mg/kg/day, 24 hours post dosing
  TNFα levels: returned to non-detectable level
[8]; 0.1 mg/kg/day, 24 hours postdose
  IL-6 levels: returned to a non-detectable level
[8]; 0.1 mg/kg/day
  plasma IFNα levels: did not cause significant increase
[8]; 0.6 mg/kg/day, 3 and 6 hours postdose
  plasma IL-6 levels: Increased plasma levels of IL-6
[8]; 0.6 mg/kg/day, 6 hours postdose in male, 1.5, 3, 6 hours in female
  TNFα levels: Elevated levels of TNFα
[8]; 0.6 mg/kg/day
  plasma IFNα levels: did not cause significant increase
[8]; 0.6 mg/kg/day, throughout the time course
  IP-10: No significant elevation of IP-10
[8]; [9]
  IP-10 level: no increased IP-10 level
  TNFα levels: Elevated TNFα levels
[8]; 1 mg/kg/day, 1.5 and 3 hours postdose
  IFNα levels: did not cause significant change
[8]; 1 mg/kg/day, 3 and 6 hours postdose
  IL-6 levels: Marked increase in IL-6 levels
[8]; 1 mg/kg/day, 6 hours postdose
  IFNα levels: elevated levels
[8]; 3 mg/kg and 10 mg/kg, 12 hours after dosing
  IFNα levels: decreased 12 hours after dosing, but did not return to pre-dose levels
[8]; 10 mg/kg group
  IFNα levels: Higher levels of IFNα
[8]; Phase II
  IL-12, G-CSF, and IFNγ levels: sporadic increases
  changes in MCP-1 and IP-10 levels: suggestive of an inflammatory response with resolution by 24 hours postdose
[8]; Phase II, 3 mg/kg, 3 and 6 hours
  plasma IL-1ra, IL-6, and IFNα cytokine levels: dose-dependent increases
